These results are taken from the supplement of paper PMC10307832.

What all share (assay): relative viability (nuclei count vs DMSO), 5 days (fraction); higher = more cells survive
Compound in the test “Sorafenib + Alpelisib”: CNC(=O)c1cc(Oc2ccc(NC(=O)Nc3ccc(Cl)c(C(F)(F)F)c3)cc2)ccn1 [Sorafenib] + Cc1nc(NC(=O)N2CCC[C@H]2C(N)=O)sc1-c1ccnc(C(C)(C)C(F)(F)F)c1 [Alpelisib] (partner 2 µM)
The method, boiled down:
(§1)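 The day after seeding in 1536-well plates, lung cancer cell lines were treated by pin tool with a single drug, or with a fixed anchor-drug dose together with five library-drug doses (not always all listed) in √10 steps. After 5 days, a combined fix-and-stain solution (final 0.05% Triton X-100, 1% formaldehyde, 1 ug/ml Hoechst) was added. Nuclei counted on 4× images gave relative viability as treated counts over vehicle counts, reported as the median of duplicate plates.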

Compound in the test “Sorafenib + Navitoclax”: CNC(=O)c1cc(Oc2ccc(NC(=O)Nc3ccc(Cl)c(C(F)(F)F)c3)cc2)ccn1 [Sorafenib] + CC1(C)CCC(c2ccc(Cl)cc2)=C(CN2CCN(c3ccc(C(=O)NS(=O)(=O)c4ccc(N[C@H](CCN5CCOCC5)CSc5ccccc5)c(S(=O)(=O)C(F)(F)F)c4)cc3)CC2)C1 [Navitoclax] (partner 0.5 µM)
In a few lines:
as §1

Compound in the test “Sorafenib + Foretinib”: CNC(=O)c1cc(Oc2ccc(NC(=O)Nc3ccc(Cl)c(C(F)(F)F)c3)cc2)ccn1 [Sorafenib] + COc1cc2c(Oc3ccc(NC(=O)C4(C(=O)Nc5ccc(F)cc5)CC4)cc3F)ccnc2cc1OCCCN1CCOCC1 [Foretinib] (partner 0.25 µM)
In a few lines:
as §1

Compound in the test “Sorafenib + Decitabine”: CNC(=O)c1cc(Oc2ccc(NC(=O)Nc3ccc(Cl)c(C(F)(F)F)c3)cc2)ccn1 [Sorafenib] + Nc1ncn([C@H]2C[C@H](O)[C@@H](CO)O2)c(=O)n1 [Decitabine] (partner 2 µM)
The method, boiled down: as §1

Compound in the test “Sorafenib + Lapatinib”: CNC(=O)c1cc(Oc2ccc(NC(=O)Nc3ccc(Cl)c(C(F)(F)F)c3)cc2)ccn1 [Sorafenib] + CS(=O)(=O)CCNCc1ccc(-c2ccc3ncnc(Nc4ccc(OCc5cccc(F)c5)c(Cl)c4)c3c2)o1 [Lapatinib] (partner 2 µM)
The method, boiled down:
as §1

Turning to NCI-H1755, the relative viability is 0.977 with Sorafenib + Alpelisib (first compound 0.08 µM); 0.93 with Sorafenib + Alpelisib (first compound 0.253 µM); 0.857 in the test with Sorafenib + Alpelisib (first compound 2.53 µM); 0.694 in the test with Sorafenib + Alpelisib (first compound 8 µM); 1.02 with Sorafenib + Navitoclax (first compound 0.08 µM); 0.987 with Sorafenib + Navitoclax (first compound 0.253 µM). Further, the relative viability with Sorafenib + Navitoclax (first compound 2.53 µM) amounted to 0.924; in the test with Sorafenib + Navitoclax (first compound 8 µM) it was 0.705; in the test with Sorafenib + Foretinib (first compound 0.08 µM) it was 0.926; with Sorafenib + Foretinib (first compound 0.253 µM), 0.863; with Sorafenib + Foretinib (first compound 2.53 µM) it was 0.921; in the test with Sorafenib + Foretinib (first compound 8 µM), 0.729. The relative viability turned out to be 0.72 in the test with Sorafenib + Decitabine (first compound 0.08 µM); 0.715 with Sorafenib + Decitabine (first compound 0.253 µM); 0.753 in the test with Sorafenib + Decitabine (first compound 2.53 µM); 0.634 with Sorafenib + Decitabine (first compound 8 µM); 1.03 with Sorafenib + Lapatinib (first compound 0.08 µM); 0.999 in the test with Sorafenib + Lapatinib (first compound 0.253 µM). Besides, the results for the relative viability with Sorafenib + Lapatinib (first compound 2.53 µM) and with Sorafenib + Lapatinib (first compound 8 µM) were 0.994 and 0.869, respectively.

Turning to NCI-H1793, the relative viability in the test with Sorafenib + Alpelisib (first compound 0.253 µM) was determined as 0.727; with Sorafenib + Alpelisib (first compound 2.53 µM) it was 1.01; with Sorafenib + Alpelisib (first compound 8 µM), 0.511; with Sorafenib + Navitoclax (first compound 0.08 µM), 0.569; with Sorafenib + Navitoclax (first compound 0.253 µM), 0.476; with Sorafenib + Navitoclax (first compound 2.53 µM), 0.932. Further, the relative viability with Sorafenib + Navitoclax (first compound 8 µM) was found to be 0.39; with Sorafenib + Foretinib (first compound 0.08 µM), 0.76; with Sorafenib + Foretinib (first compound 0.253 µM), 0.853; with Sorafenib + Foretinib (first compound 2.53 µM) it was 1.12; with Sorafenib + Foretinib (first compound 8 µM), 0.798; in the test with Sorafenib + Decitabine (first compound 0.08 µM) it was 0.531. For the same cell line, the relative viability worked out at 0.535 with Sorafenib + Decitabine (first compound 0.253 µM); 0.464 in the test with Sorafenib + Decitabine (first compound 2.53 µM); 0.71 with Sorafenib + Lapatinib (first compound 0.08 µM); 0.833 in the test with Sorafenib + Lapatinib (first compound 0.253 µM); 0.949 with Sorafenib + Lapatinib (first compound 2.53 µM); 0.221 with Sorafenib + Lapatinib (first compound 8 µM).

On to NCI-H1915, for which the relative viability with Sorafenib + Alpelisib (first compound 0.08 µM) is 0.998; with Sorafenib + Alpelisib (first compound 0.253 µM) it was 0.922; with Sorafenib + Alpelisib (first compound 2.53 µM) it was 0.909; with Sorafenib + Alpelisib (first compound 8 µM), 1.07; in the test with Sorafenib + Navitoclax (first compound 0.08 µM), 0.785; with Sorafenib + Navitoclax (first compound 0.253 µM) it was 0.706. Moreover, the relative viability in the test with Sorafenib + Navitoclax (first compound 2.53 µM) was 0.681; in the test with Sorafenib + Navitoclax (first compound 8 µM), 0.798; with Sorafenib + Foretinib (first compound 0.08 µM), 1.08; in the test with Sorafenib + Foretinib (first compound 0.253 µM), 0.969; with Sorafenib + Foretinib (first compound 2.53 µM), 1.03; with Sorafenib + Foretinib (first compound 8 µM) it was 1.09. Further, the relative viability amounted to 0.26 with Sorafenib + Decitabine (first compound 0.08 µM); 0.254 in the test with Sorafenib + Decitabine (first compound 0.253 µM); 0.268 with Sorafenib + Decitabine (first compound 2.53 µM); 0.247 with Sorafenib + Decitabine (first compound 8 µM); 0.932 in the test with Sorafenib + Lapatinib (first compound 0.08 µM); 0.879 with Sorafenib + Lapatinib (first compound 0.253 µM). Moreover, the values for the relative viability with Sorafenib + Lapatinib (first compound 2.53 µM) and in the test with Sorafenib + Lapatinib (first compound 8 µM) were 0.943 and 0.951, respectively.

Take NCI-H1944: the relative viability with Sorafenib + Alpelisib (first compound 0.08 µM) amounted to 0.882; in the test with Sorafenib + Alpelisib (first compound 0.253 µM) it was 0.909; with Sorafenib + Alpelisib (first compound 2.53 µM), 1.01; in the test with Sorafenib + Alpelisib (first compound 8 µM), 0.706; in the test with Sorafenib + Navitoclax (first compound 0.08 µM), 1.06; with Sorafenib + Navitoclax (first compound 0.253 µM) it was 1.06. Besides, the relative viability with Sorafenib + Navitoclax (first compound 2.53 µM) is 1.18; in the test with Sorafenib + Navitoclax (first compound 8 µM), 0.872; with Sorafenib + Foretinib (first compound 0.08 µM) it was 0.92; with Sorafenib + Foretinib (first compound 0.253 µM), 0.97; with Sorafenib + Foretinib (first compound 2.53 µM), 0.946; in the test with Sorafenib + Foretinib (first compound 8 µM) it was 0.747. In addition, the relative viability with Sorafenib + Decitabine (first compound 0.253 µM) is 0.47; in the test with Sorafenib + Decitabine (first compound 2.53 µM), 0.482; with Sorafenib + Decitabine (first compound 8 µM) it was 0.38; with Sorafenib + Lapatinib (first compound 0.08 µM) it was 0.881; with Sorafenib + Lapatinib (first compound 0.253 µM), 0.763; with Sorafenib + Lapatinib (first compound 2.53 µM), 0.912. For the same cell line, in the test with Sorafenib + Lapatinib (first compound 8 µM), the relative viability worked out at 0.796.

Take NCI-H1975: the relative viability turned out to be 0.643 with Sorafenib + Alpelisib (first compound 0.08 µM); 0.789 with Sorafenib + Alpelisib (first compound 0.253 µM); 0.77 with Sorafenib + Alpelisib (first compound 2.53 µM); 0.323 in the test with Sorafenib + Alpelisib (first compound 8 µM); 1.01 with Sorafenib + Navitoclax (first compound 0.08 µM); 1.1 with Sorafenib + Navitoclax (first compound 0.253 µM). The relative viability with Sorafenib + Navitoclax (first compound 2.53 µM) worked out at 1.18; with Sorafenib + Navitoclax (first compound 8 µM), 0.853; in the test with Sorafenib + Foretinib (first compound 0.253 µM), 0.958; in the test with Sorafenib + Foretinib (first compound 2.53 µM), 0.994; with Sorafenib + Foretinib (first compound 8 µM), 0.649; with Sorafenib + Decitabine (first compound 0.08 µM), 0.431. Further, the relative viability is 0.383 with Sorafenib + Decitabine (first compound 0.253 µM); 0.365 with Sorafenib + Decitabine (first compound 2.53 µM); 0.353 with Sorafenib + Decitabine (first compound 8 µM); 1.04 with Sorafenib + Lapatinib (first compound 0.08 µM); 0.835 with Sorafenib + Lapatinib (first compound 0.253 µM); 1.02 with Sorafenib + Lapatinib (first compound 2.53 µM). Further, the relative viability with Sorafenib + Lapatinib (first compound 8 µM) was 0.448.
